# Measured values as given in patent US8461289B2, “Bioresorbable polymers synthesized from monomer analogs of natural metabolites” (Rutgers, The State University of New Jersey, priority 2006, dated 2013).
# Read-outs that look alike come from different tables or passages of the source.
# Assay: Determination of solubility of monomers in PBS (HPLC of filtrate against calibration curve)
# Assay type: physicochemical
# Details: monomer in PBS (pH 7.4), filtered; for solubility at 2 h: aqueous buffer, thermodynamic from solid
# Procedure: About 30 mg of the monomer and 2 mL of PBS (pH 7.4) were added to a 2 dram vial. The vial was agitated on a vortex mixer for 2 h. If all the solid dissolved, more solid was added and agitation was continued. The mixture was filtered using a syringe filter to remove undissolved monomer. The clear filtrate was analyzed by HPLC by injecting 5 microliter of the filtrate. The area of the peak obtained was measured. A calibration curve was obtained by injecting known concentration of the monomer in methanol and plotting concentration against the area of the peaks obtained. Using this calibration curve the solubility of the monomer in PBS at ambient temperature was determined.
# To determine the solubility at 37° C., the vials were placed in an incubator at 37° C. for 2 h. The mixture was then quickly filtered using syringe filter and then diluted 2× with PBS to prevent precipitation of the monomer. The solubility is determined using procedures similar to that used at room temperature solubility.
# [1] = ambient temperature / 25° C., agitated 2 h
Structure (SMILES),"solubility at 2 h (ambient temperature / 25° C., agitated 2 h, read-out: Solubility, mg/mL, 25° C.) [mg/mL]","solubility at 2 h (incubator at 37° C. for 2 h, diluted 2× with PBS, read-out: Solubility, mg/mL, 37° C.) [mg/mL]","Solubility, mg/mL, 25° C. [1] [mg/mL]","Solubility, mg/mL, 37° C. (incubator at 37° C. for 2 h, diluted 2× with PBS) [mg/mL]"
"CCOC(=O)[C@H](CO)NC(=O)CCc1ccc(O)cc1 [DAT-serine ethyl ester, Desaminotyrosyl Serine Ethyl Ester]",7.7,14.1,,
"CCOC(=O)[C@H](Cc1ccc(O)cc1)NC(=O)CCc1ccc(O)cc1 [DAT-tyrosine ethyl ester (DTE), DAT-tyrosine ethyl ester, reference compound]",,,0.74,
"CCOC(=O)C(Cc1c[nH]c2ccc(O)cc12)NC(=O)CCc1ccc(O)cc1 (stereo not shown) [DAT-5-hydroxytryptophan ethyl ester, DAT-5-Hydroxytryptophan Ethyl Ester]",,,0.15,0.43
"CCOC(=O)C1CC(O)CN1C(=O)CCc1ccc(O)cc1 (stereo not drawn) [DAT-trans-Hydroxyproline ethyl ester, DAT-Hydroxyproline Ethyl Ester]",,,12,
CCOC(=O)C(Cc1ccc(Oc2ccc(O)cc2)cc1)NC(=O)CCc1ccc(O)cc1 (stereo not shown) [DAT-Thyronine ethyl ester],,,<0.05,
